Data published in patent US11534423B2, “Methods and compositions for improving exercise endurance, performance, or tolerance” (Washington University, priority 2019, dated 2022).

How the values were obtained:
[1] = system: Wild-type mice; experiment: acute exercise test to exhaustion after intraperitoneal injection; format: in vivo; settings: PF-429242 or vehicle, N=3, FIG. 14
Experimental: Exercise endurance: Mice will undergo a single bout of a graded exercise test to exhaustion using a 4-lane treadmill on a 0% incline, with an electric grid at the back of each treadmill. Three days before the endurance test, mice will have 3 days of acclimation at 10 m/min at 0% incline for 5 min. The test will involve a 5 min acclimation period on the treadmill (turned off), followed by: 5 m/min for 5 min; 10 m/min for 5 min; 15 m/min for 10 min; 25 m/min for 10 min; and finally, 30 m/min until exhaustion is reached. Exhaustion is defined as the inability of the mouse to resume running within 10 s after direct contact on the electric grid and inability to right itself when placed on its back.
Wild-type mice were treated with PF-429242 or vehicle via intraperitoneal injection, and subjected to an acute exercise test to exhaustion (N=3).

[2] = target: T1, S1P (Mus musculus, UniProt Q9WTZ2); settings: 30 mg/kg i.p. injection every 6 hrs for 24 hr; cited from earlier work
T1 construct: from tissue; host or cells: mouse liver (in vivo, i.p. dosing; earlier mouse studies reported elsewhere)
T1 sequence (Q9WTZ2 187-1052): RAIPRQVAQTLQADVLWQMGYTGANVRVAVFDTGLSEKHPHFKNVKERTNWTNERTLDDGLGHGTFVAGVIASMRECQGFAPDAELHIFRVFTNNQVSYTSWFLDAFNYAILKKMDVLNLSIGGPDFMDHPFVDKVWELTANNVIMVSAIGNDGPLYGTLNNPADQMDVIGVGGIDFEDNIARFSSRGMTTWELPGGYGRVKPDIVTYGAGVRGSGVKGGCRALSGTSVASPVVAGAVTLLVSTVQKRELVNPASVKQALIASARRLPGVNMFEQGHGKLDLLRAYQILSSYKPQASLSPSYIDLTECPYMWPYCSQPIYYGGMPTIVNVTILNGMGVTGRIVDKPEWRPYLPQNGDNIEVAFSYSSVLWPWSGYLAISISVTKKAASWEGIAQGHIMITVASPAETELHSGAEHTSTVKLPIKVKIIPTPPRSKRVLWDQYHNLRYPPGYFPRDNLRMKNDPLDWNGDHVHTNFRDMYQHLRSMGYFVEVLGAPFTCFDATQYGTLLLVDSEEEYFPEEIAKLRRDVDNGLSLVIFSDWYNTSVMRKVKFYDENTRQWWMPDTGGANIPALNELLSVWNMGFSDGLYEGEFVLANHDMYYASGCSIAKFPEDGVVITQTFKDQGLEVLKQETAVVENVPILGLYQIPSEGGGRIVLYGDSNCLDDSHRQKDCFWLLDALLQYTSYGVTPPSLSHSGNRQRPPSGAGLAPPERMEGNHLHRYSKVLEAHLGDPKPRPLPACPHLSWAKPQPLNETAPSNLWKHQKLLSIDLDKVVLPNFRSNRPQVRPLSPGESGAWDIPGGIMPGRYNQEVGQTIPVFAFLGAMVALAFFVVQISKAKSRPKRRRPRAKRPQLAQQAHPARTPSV

CCN(CC)Cc1ccc(C(=O)N(CCc2ccccc2OC)[C@@H]2CCNC2)cc1 [PF-429242]
exercise tolerance [1]: enhanced exercise tolerance | S1P inhibition in mouse liver [2]: effectively inhibits S1P
